Source: US20250186446A1, “ORGANIC COMPOUNDS” (INTRA-CELLULAR THERAPIES, INC., priority 2022, published 2025)

Experiments:
Type in all cases: in vivo, mouse
[1] = system: E0771 murine breast cancer cells; assay: E0771 syngeneic breast cancer tumor growth in mice; details: E0771 tumors
Procedure: E0771 murine breast cancer cells are obtained from the American Type Culture Collection (ATCC) and maintained in DMEM medium containing 10% fetal bovine serum, 4 mM glutamine, 20 mM HEPES, and 1% penicillin/streptomycin. The cells are cultured in tissue culture flasks in a humidified incubator at 37° C., in an atmosphere of 5% CO2 and 95% air. The E0771 tumor cells used for implantation are harvested and re-suspended at a concentration of 2.5×10^6 cells/mL in cold PBS. Nine weeks old female C57Bl/6 mice (C57Bl/6J, Jackson Laboratory) are injected subcutaneously in the right flank with 0.5×10^6 cells in 0.2 mL cold PBS. 10 days later the mice have a palpable size tumor, and specified size to start treatments (around 100 mm^3). Mice are randomized in groups after the tumors are measured with a caliper in two dimensions to monitor size. Tumor size is calculated using the formula: Tumor Volume (mm^3)=(w^2×1)/2 where w=width and l=length, in mm. Tumors are measured twice per week for the duration of the study. Each mouse is euthanized as it reached a tumor volume endpoint of 1500 mm^3 or if they show any type of discomfort, whichever comes first.
[…] Compound A is synthesized at Intra-Cellular Therapies Inc. Compound A diets are used to treat mice. Compound A diet 900 ppm (diet supplements 900 mg of Compound A per kg to Picolab Rodent Diet 5053) is produced by Envigo (Madison WI). Mice are dosed 5 days a week with vehicle or Compound A.
(§1) The anti-PD-1 RMP1-14 (Lot No. 800121F12A) and isotype (Lot No. 749620N1) antibody are purchased from BioXCell. The stock solution is diluted in PBS to yield a dosing solution of 0.1 or 1 mg/mL, which delivered 1 or 10 mg/kg respectively in a dosing volume of 0.2 mL (10 mL/kg, for a […]). Mice are administered isotype or anti-PD-1 RMP1-14 intraperitoneally in 0.2 mL (10 mL/kg, for a […]) twice a week.
Mice are treated with Compound B alone, anti-PD-1 antibody alone, or the combination of Compound B and anti-PD-1 antibody. Compound B is synthesized at Intra-Cellular Therapies Inc. Compound B diets are used to treat mice. […]

[2] = system: 4T1 murine breast cancer cells; assay: 4T1 syngeneic breast cancer tumor growth and survival in mice; details: 4T1 tumors
Procedure: (§2) 4T1 murine breast cancer cells are obtained from the American Type Culture Collection (ATCC) and maintained in RPMI medium containing 10% fetal bovine serum, 4 mM glutamine, and 1% penicillin/streptomycin. The cells were cultured in tissue culture flasks in a humidified incubator at 37° C., in an atmosphere of 5% CO2 and 95% air. The 4T1 tumor cells used for implantation are harvested and re-suspended at a concentration of 50×10^3 cells/mL in cold PBS. Nine weeks old female Balb/c mice (Balb/cJ, Jackson Laboratory) are injected subcutaneously in the right flank with 10×10^3 cells in 0.2 mL cold PBS. […] Mice are randomized in groups after the tumors are measured with a caliper in two dimensions to monitor size. Tumor size is calculated using the formula: Tumor Volume (mm^3)=(w^2×1)/2 where w=width and l=length, in mm. Tumors are measured twice per week for the duration of the study. Each mouse is euthanized as it reached a tumor volume endpoint of 1500 mm^3 or if they show any type of discomfort, whichever comes first.
as §1
as §2, with “(mm^3) (w^2×1)/2” for “(mm^3)=(w^2×1)/2”

[3] = LC/MS/MS quantification of drug exposure in 4T1 tumor-bearing mice; details: in absence or presence of anti-PD1
Procedure: (§3) Tumor, liver, and feces samples are diluted in phosphate buffer and homogenized using ultrasonic processor. Plasma and homogenized tissue samples along with a set of standard and quality control samples are extracted by way of protein precipitation technique on Ostro plate (Waters) using 1% formic acid in acetonitrile spiked with internal standard. 2 μL of the filtered samples are injected using an autosampler and separated chromatographically using a Phenomenex, Synergi™, […], 50×3 mm, Polar-RP column, isocratic mobile phase combination of 0.1% formic acid in water and 0.1% formic acid in acetonitrile (40/60) with flow rate of 0.8 mL/min. The Sciex Qtrap 6500 mass spectrometer is used as the detector with positive electrospray in MRM ionization mode and an ion source temperature of 650° C. Quantification of Compound A is carried out using a calibration curve established with standards for the corresponding analyte concentration, retention time and mass profile.

[4] = LC/MS/MS quantification of drug exposure in E0771 tumor-bearing mice
Procedure: as §3
Tumor, liver, and feces samples are diluted in phosphate buffer and homogenized using ultrasonic processor. […] Quantification of Compound B is carried out using a calibration curve established with standards for the corresponding analyte concentration, retention time and mass profile.

[5] = Example 2, Compound A 300 ppm or 900 ppm in diet, monotherapy or with anti-PD1 10 mg/kg

Compound	tumor volume or weight relative to isotype (control) and/or anti-PD1 alone ([1]; Example 3, Compound B 100, 300 or 900 ppm in diet, monotherapy or with anti-PD1 1 mg/kg)	tumor volume ([2]; Example 4, Compound B 100, 300 or 900 ppm in diet, anti-PD1 10 mg/kg, alone or combined, anti-PD1 alone: after day 5, vs isotype and/or anti-PD1 alone)	tumor weight at terminal sacrifice ([2]; Example 4, Compound B 100, 300 or 900 ppm in diet, anti-PD1 10 mg/kg, alone or combined, treatment day 14, vs isotype and/or anti-PD1 alone)	exposure in plasma and tissues ([3]; Example 4, Compound B in diet)	exposure in plasma and tissues ([4]; Example 3, Compound B in diet, in absence or presence of anti-PD1)	tumor volume ([1]; Example 1, C57Bl/6 mice, Compound A 900 ppm in diet, anti-PD1 10 mg/kg ip, alone or combined, day 3, 7, 10, 14, 17, vs isotype control)	tumor weight at terminal sacrifice ([1]; Example 1, Compound A 900 ppm in diet, anti-PD1 10 mg/kg, alone or combined, treatment day 17, vs isotype control)	survival of animals [2, 5]	tumor volume or weight relative to isotype (control) [2, 5]	exposure in plasma and tissues ([3]; Example 2, Compound A in diet)	drug exposures in plasma, tissues, and feces ([4]; Example 1, Compound A 900 ppm in diet, all groups receiving Compound A)
CC(=O)c1ccc(Cn2nc3c(c2Nc2ccc(F)cc2)C(=O)N(C)C2=NC(C)(C)CN23)cc1 [Compound B]	significantly reduces	significantly reduces	significantly reduces	comparable	comparable	–	–	–	–	–	–
CN1C(=O)c2c(nn(Cc3ccc(-c4cccc(F)n4)cc3)c2Nc2ccccc2)N2C1=N[C@@H]1CCC[C@@H]12 [Compound A]	–	–	–	–	–	Neither Compound A (900 ppm) treatment alone nor anti-PD-1 antibody (10 mg/kg) treatment alone shows a significant effect	Neither Compound A (900 ppm) treatment alone nor anti-PD-1 antibody (10 mg/kg) treatment alone shows a significant effect	improved	significantly reduce	comparable	comparable
